Source: PubChem BioAssay AID296 (DTP/NCI, 2004)
Values joined by “and” are separate entries in the source; they are usually repeats but may differ in a detail not shown here. Identical values can stand only once. Results filed as inconclusive are left out.

Test system: MX-1 breast xenograft, nude mice, tumor weight T/C
Assay: NCI In Vivo Anticancer Drug Screen. Data for tumor model Human Mammary Carcinoma MX-1 Xenograft (intrarenal inoculation) in NU/NU Swiss (nude) mice
Conditions: endpoint: mean tumor weight change, higher = larger tumour
Procedure, shortened: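 Antitumour effect measured in vivo against vehicle controls, expressed as T/C.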

[1] = dose: 50.0 mg/kg/injection, schedule: Q01DX010 (sc), vehicle: saline
[2] = dose: 100.0 mg/kg/injection, schedule: Q01DX010 (sc), vehicle: saline
[3] = dose: 200.0 mg/kg/injection, schedule: Q01DX010 (sc), vehicle: saline
[4] = dose: 2400.0 mg/kg/injection, schedule: Q04DX003 (sc), vehicle: Klucel (hydroxypropylcellulose) (HPC)
[5] = dose: 600.0 mg/kg/injection, schedule: Q04DX003 (sc), vehicle: saline with Tween-80
[6] = dose: 1200.0 mg/kg/injection, schedule: Q04DX003 (sc), vehicle: saline with Tween-80
[7] = dose: 300.0 mg/kg/injection, schedule: Q04DX003 (sc), vehicle: saline with Tween-80

Cc1ncc([N+](=O)[O-])n1CCSC(N)=O
T/C (dose: 50.0 mg/kg/injection, schedule: Q01DX010 (sc), vehicle: saline with Tween-80): 103 % of control | T/C (dose: 100.0 mg/kg/injection, schedule: Q01DX010 (sc), vehicle: saline with Tween-80): 15 % of control | T/C (dose: 200.0 mg/kg/injection, schedule: Q01DX009 (sc), vehicle: saline with Tween-80): 17 % of control | T/C (dose: 400.0 mg/kg/injection, schedule: Q01DX009 (sc), vehicle: saline with Tween-80): 42 % of control | T/C (dose: 400.0 mg/kg/injection, schedule: Q01DX010 (sc), vehicle: saline with Tween-80): 77 % of control and 83 % of control and 86 % of control | T/C (dose: 800.0 mg/kg/injection, schedule: Q01DX009 (sc), vehicle: saline with Tween-80): 5 % of control

Cc1c2ccccc2cc2cccc[n+]12
T/C (dose: 7.5 mg/kg/injection, schedule: Q04DX003 (sc), vehicle: saline): 74 % of control | T/C (dose: 15.0 mg/kg/injection, schedule: Q04DX003 (sc), vehicle: saline): 88 % of control | T/C (dose: 30.0 mg/kg/injection, schedule: Q04DX003 (sc), vehicle: saline): 67 % of control

CC1(C)OC(=O)N(CO)C1=O
T/C (dose: 25.0 mg/kg/injection, schedule: Q01DX010 (sc), vehicle: saline): 45 % of control | T/C [1]: 31 % of control | T/C [2]: 48 % of control | T/C [3]: 114 % of control

Nc1ncc(C2OC(CO)C(O)C2O)c(=O)[nH]1 (stereo not drawn)
T/C (dose: 150.0 mg/kg/injection, schedule: Q04DX003 (ip), vehicle: saline): 53 % of control | T/C (dose: 300.0 mg/kg/injection, schedule: Q04DX003 (ip), vehicle: saline): 35 % of control | T/C (dose: 600.0 mg/kg/injection, schedule: Q04DX003 (ip), vehicle: saline): 25 % of control

CCN(CC)CCNc1ccc(C)c2sc3ccccc3c(=O)c12
T/C [1]: 79 % of control | T/C [2]: 53 % of control

CCCC(=O)Nc1ncnc2c1ncn2C1OC2COP(=O)(O)OC2C1OC(=O)CCC (stereo not drawn)
T/C [3]: 159 % of control | T/C (dose: 400.0 mg/kg/injection, schedule: Q01DX010 (sc), vehicle: saline): 124 % of control

C/C=C/C=C/c1cc2cc3c(c(O)c2c(=O)[nH]1)C1(CC3)C(O)=c2c(=O)c3c(=O)cc(OC)c(=O)c=3c(=O)c2=C1O (stereo not drawn)
T/C (dose: 8.0 mg/kg/injection, schedule: Q01DX010 (sc), vehicle: DMSO): 122 % of control | T/C (dose: 16.0 mg/kg/injection, schedule: Q01DX010 (sc), vehicle: DMSO): 91 % of control

CSc1ncnc2c1ncn2C1OC(CO)C(O)C1O (stereo not drawn)
T/C (dose: 75.0 mg/kg/injection, schedule: Q04DX003 (sc), vehicle: saline + alcohol): 3 % of control and 14 % of control | T/C (dose: 150.0 mg/kg/injection, schedule: Q04DX003 (sc), vehicle: saline + alcohol): -81 % of control and -100 % of control | T/C (dose: 300.0 mg/kg/injection, schedule: Q04DX003 (sc), vehicle: saline + alcohol): -90 % of control

O=NN(CCCl)C(=O)NC1OC(CO)C(O)C(O)C1O (stereo not drawn)
T/C (dose: 5.0 mg/kg/injection, schedule: Q04DX003 (sc), vehicle: saline): 91 % of control | T/C (dose: 10.0 mg/kg/injection, schedule: Q04DX003 (sc), vehicle: saline): 69 % of control | T/C (dose: 20.0 mg/kg/injection, schedule: Q04DX003 (sc), vehicle: saline): 40 % of control

COC(=O)[C@@]12OC[C@]34[C@H]([C@@H](O)[C@@H]1O)[C@@]1(C)CC(=O)C(O)=C(C)[C@@H]1C[C@H]3OC(=O)[C@H](OC(=O)/C=C(\C)C(C)C)[C@@H]24
T/C (dose: 0.25 mg/kg/injection, schedule: Q04DX003 (sc), vehicle: saline + alcohol): 52 % of control | T/C (dose: 0.5 mg/kg/injection, schedule: Q04DX003 (sc), vehicle: saline + alcohol): 158 % of control | T/C (dose: 1.0 mg/kg/injection, schedule: Q04DX003 (sc), vehicle: saline + alcohol): 100 % of control | T/C (dose: 2.0 mg/kg/injection, schedule: Q04DX003 (sc), vehicle: saline + alcohol): 90 % of control

Oc1c(Cl)cc(Cl)cc1C1N2CCCCC2C2c3cccn3-c3ccccc3N21 (stereo not drawn)
T/C (dose: 300.0 mg/kg/injection, schedule: Q04DX003 (sc), vehicle: Klucel (hydroxypropylcellulose) (HPC)): 105 % of control | T/C (dose: 600.0 mg/kg/injection, schedule: Q04DX003 (sc), vehicle: Klucel (hydroxypropylcellulose) (HPC)): 66 % of control | T/C (dose: 1200.0 mg/kg/injection, schedule: Q04DX003 (sc), vehicle: Klucel (hydroxypropylcellulose) (HPC)): 88 % of control | T/C [4]: 82 % of control

Nc1cc2c3c(cccc3c1)C(=O)N(CCN1CCCC1)C2=O
T/C (dose: 25.0 mg/kg/injection, schedule: Q04DX003 (sc), vehicle: saline with Tween-80): 60 % of control | T/C (dose: 50.0 mg/kg/injection, schedule: Q04DX003 (sc), vehicle: saline with Tween-80): 60 % of control | T/C (dose: 100.0 mg/kg/injection, schedule: Q04DX003 (sc), vehicle: saline with Tween-80): 120 % of control | T/C (dose: 200.0 mg/kg/injection, schedule: Q04DX003 (sc), vehicle: saline with Tween-80): 119 % of control

C/C(=N\NC(N)=O)c1cccc(/C(C)=N/NC(N)=O)n1
T/C [5]: 98 % of control | T/C [6]: 74 % of control

CCC1=C2C(=O)c3ccccc3C2=C(C)S(=O)(=O)O1
T/C [7]: 122 % of control | T/C [5]: 104 % of control | T/C [6]: 106 % of control

COP12(OCCO1)SC(C(F)(F)F)=C(C(F)(F)F)S2
T/C (dose: 125.0 mg/kg/injection, schedule: Q04DX003 (sc), vehicle: saline with Tween-80): 119 % of control | T/C (dose: 250.0 mg/kg/injection, schedule: Q04DX003 (sc), vehicle: saline with Tween-80): 92 % of control

CC1=CC(=Nc2ccc(N(CCCl)CCCl)cc2)C=C(C)C1=O
T/C (dose: 150.0 mg/kg/injection, schedule: Q04DX003 (sc), vehicle: Klucel (hydroxypropylcellulose) (HPC)): 34 % of control | T/C [4]: -89 % of control

Cn1ccc(=Nc2ccc(NC(=O)c3ccc(N=c4ccn(C)c5ccc([N+](=O)[O-])cc45)cc3[N+](=O)[O-])cc2)cc1
T/C (dose: 300.0 mg/kg/injection, schedule: Q04DX003 (sc), vehicle: saline + Tween-80 + alcohol): 123 % of control | T/C (dose: 1200.0 mg/kg/injection, schedule: Q04DX003 (sc), vehicle: saline + Tween-80 + alcohol): 117 % of control | T/C (dose: 2400.0 mg/kg/injection, schedule: Q04DX003 (sc), vehicle: saline + Tween-80 + alcohol): 69 % of control

O=C1[C@H]2CCC[C@H]2[C@H]2CCC[C@@H]12
T/C [7]: 112 % of control | T/C [5]: 123 % of control | T/C [6]: 95 % of control | T/C (dose: 2400.0 mg/kg/injection, schedule: Q04DX003 (sc), vehicle: saline with Tween-80): 92 % of control

Cc1c(N)nc(C(CC(N)=O)NCC(N)C(N)=O)nc1C(=O)NC(C(=O)NC(C)C(O)C(C)C(=O)NC(C(=O)NCCc1nc(-c2nc(C(=O)NCCCNC(C)c3ccccc3)cs2)cs1)C(C)O)C(OC1OC(CO)C(O)C(O)C1OC1OC(CO)C(O)C(OC(N)=O)C1O)c1cnc[nH]1 (stereo not drawn)
T/C (dose: 2.0 mg/kg/injection, schedule: Q01DX010 (sc), vehicle: saline): 114 % of control | T/C (dose: 8.0 mg/kg/injection, schedule: Q01DX010 (sc), vehicle: saline): 92 % of control | T/C (dose: 16.0 mg/kg/injection, schedule: Q01DX010 (sc), vehicle: saline): 89 % of control

Nc1nc2n[nH]nc2c(=O)[nH]1
T/C (dose: 75.0 mg/kg/injection, schedule: Q04DX003 (ip), vehicle: suspension in saline): 22 % of control and 46 % of control | T/C (dose: 75.0 mg/kg/injection, schedule: Q04DX003 (sc), vehicle: suspension in saline): 35 % of control | T/C (dose: 150.0 mg/kg/injection, schedule: Q04DX003 (ip), vehicle: suspension in saline): 6 % of control | T/C (dose: 150.0 mg/kg/injection, schedule: Q04DX003 (sc), vehicle: suspension in saline): 18 % of control | T/C (dose: 300.0 mg/kg/injection, schedule: Q04DX003 (ip), vehicle: suspension in saline): 1 % of control | T/C (dose: 600.0 mg/kg/injection, schedule: Q04DX003 (sc), vehicle: suspension in saline): -77 % of control

O=NN(CCCl)C(=O)NCCO
T/C (dose: 3.12 mg/kg/injection, schedule: Q04DX003 (sc), vehicle: water): 72 % of control and 208 % of control | T/C (dose: 12.5 mg/kg/injection, schedule: Q04DX003 (sc), vehicle: water): 10 % of control

COc1cccc2c1C(=O)c1c(O)c3c(c(O)c1C2=O)C[C@@](O)(C(=O)COC(=O)c1cccnc1)C[C@@H]3OC1CC(N)C(O)C(C)O1 (stereo partly drawn)
T/C (dose: 6.0 mg/kg/injection, schedule: Q04DX003 (sc), vehicle: saline): 52 % of control and 58 % of control | T/C (dose: 12.0 mg/kg/injection, schedule: Q04DX003 (sc), vehicle: saline): 15 % of control and 26 % of control | T/C (dose: 24.0 mg/kg/injection, schedule: Q04DX003 (sc), vehicle: saline): 20 % of control

CSc1ccc2c(c1)C(N1CCN(C)CC1)Cc1ccccc1S2 (stereo not drawn)
T/C (dose: 12.5 mg/kg/injection, schedule: Q04DX003 (sc), vehicle: other): 50 % of control | T/C (dose: 25.0 mg/kg/injection, schedule: Q04DX003 (sc), vehicle: other): 23 % of control | T/C (dose: 100.0 mg/kg/injection, schedule: Q04DX003 (sc), vehicle: other): 42 % of control
